Source: patent publication US20060069080A1, “Combinations of substituted azetidinones and CB1 antagonists” (priority 2004, published 2006)

Assays:
[1] = tested on: hypercholesterolemic/diet induced obese C57BL/6 mouse; assay: Treatment of hypercholesterolemic/diet induced obese C57BL/6 mice with ezetimibe; format: in vivo; settings: 5 mg/kg/day
Procedure: The hypercholesterolemic/diet induced obese C57BL/6 mouse can be used to evaluate the vivo efficacy of a cholesterol absorption inhibitor, ezetimibe, in combination with a selective CB1 receptor antagonist, rimonabant. Feeding mice a “western” diet containing 45 kcal % of fat and 0.15% cholesterol diet for 21 days increased plasma cholesterol to 150 mg/dL and increased hepatic cholesteryl esters 2-fold.
Nonfasted plasma cholesterol levels were determined by a modification of the cholesterol oxidase method, in which the reagents were available in a kit form from Wako Pure Chemicals Industries, Ltd. (Osaka, Japan). Samples of liver (0.2 g) were lipid extracted. Lipid extracts were dried under nitrogen into HPLC sample vials, resuspended in hexane and injected onto a Zorbax Sil (4.6×25 cm) silica column. Chromatography was performed using an isocratic mobile phase containing 98.8% hexane and 1.2% isopropanol at a flow rate of 2 mL/min. Lipids were detected by absorbance at 206 nm and quantitated by computer integration (System Gold, Beckman) of elution profiles. Elution time for cholesteryl ester was 1.45 min. Cholesteryl ester content of liver-derived samples was derived from a standard curve constructed using known amounts of cholesteryl oleate. Cholesteryl oleate was used as the standard since this is the major cholesteryl ester species present in the liver and this specific cholesteryl ester has an extinction coefficient that approximates that of a weighted average for all the cholesteryl esters present in the liver.

[2] = tested on: obese, hyperinsulinemic hamsters; settings: ezetimibe treatment; cited from earlier work
[3] = tested on: Diet induced obese mice; assay: Treatment of diet induced obese C57BL/6 mice with rimonabant; format: in vivo, mouse; settings: 1, 3 and 10 mg/kg p.o. once a day for 5 consecutive days; western diet 16 weeks; at all doses
Procedure: Plasma leptin and insulin were determined using commercially available ELISA kits (Crystal Chem and ALPCO for leptin and insulin, respectively). Whole body adiposity was determined using an NMR based method (EchoMRI, Echo Medical Inc.).

[4] = tested on: diet-induced obese mice; settings: mouse, in vivo; cited from earlier work
[5] = tested on: patients; settings: cited from earlier work

In the case of O=C1[C@H](CC[C@H](O)c2ccc(F)cc2)[C@@H](c2ccc(O)cc2)N1c1ccc(F)cc1 [Ezetimibe, ezetimibe], the “accumulation of hepatic cholesteryl esters” value ([1]; western diet 21 days) is reported as “completely inhibited”, the hepatic cholesteryl esters ([1]; western diet 21 days, control 12.8 mg/g) is reported as 4.6 mg/g and the plasma cholesterol levels ([1]; western diet (45 kcal % fat, 0.15% cholesterol) for 21 days, diet control 150 mg/dL) is reported as 102 mg/dL. For the same compound, the body weights [2] was “does not appear to cause any changes”, the food consumption [2] was “does not appear to cause any changes” and the plasma leptin levels [2] was “does not appear to cause any changes”.

For Cc1c(C(=O)NN2CCCCC2)nn(-c2ccc(Cl)cc2Cl)c1-c1ccc(Cl)cc1 [rimonabant], the adiposity [3] was “significant dose dependent reduction”, the body weight [3] was “significant dose dependent reduction” and the cumulative food intake [3] was “significant dose dependent reduction”. For the same compound, the plasma insulin levels [3] was “significant dose dependent reduction”, the plasma leptin levels [3] was “significant dose dependent reduction” and the plasma cholesterol levels [4] was “does not appear to reduce”. The “serum high density lipoprotein (HDL) levels” value [5] was “increase” and the triglyceride levels [5] was “decrease”.
